# Measurements taken from patent US20230295213A1, “CD73 INHIBITORS AND PHARMACEUTICAL USES THEREOF” (RISEN (SUZHOU) PHARMA TECH CO., LTD., priority 2018, published 2023).
# Molecular target: CD73 (Homo sapiens (Human), UniProt P21589)
# Assay: CD73 enzyme inhibition assay (Malachite Green Phosphate Detection Kit)
# Format: biochemical
# Details: CD73 protein 0.5 μg/mL (2x), Tris-HCl pH 7.3, OD 620 nm; read-out: Potency (IC50 class), inhibitory activity in CD73 enzyme assay
# Method: To evaluate the inhibitory effect of selected compounds on CD73, Malachite Green Phosphate Detection Kit (R&D, Cat #DY996) was used. Briefly, compounds were dissolved and diluted to the desired concentration using phosphate-free buffer (Tris-HCl, pH 7.3). 25 μL of the compound solution was added to an equal volume of CD73 protein solution (2× concentration, 0.5 μg/mL, Novoprotein, Cat #C446), followed by a 5-minute incubation at room temperature. 10 μL of Malachite Green Reagent A was added to each well, mixed thoroughly and incubated for 10 minutes at room temperature. 10 μL of Malachite Green Reagent B was then added to each well, mixed thoroughly and incubated for 20 minutes at room temperature. Finally, the optical density of each well was determined using a microplate reader set to 620 nm.
# Sequence of CD73 (P21589 27-574): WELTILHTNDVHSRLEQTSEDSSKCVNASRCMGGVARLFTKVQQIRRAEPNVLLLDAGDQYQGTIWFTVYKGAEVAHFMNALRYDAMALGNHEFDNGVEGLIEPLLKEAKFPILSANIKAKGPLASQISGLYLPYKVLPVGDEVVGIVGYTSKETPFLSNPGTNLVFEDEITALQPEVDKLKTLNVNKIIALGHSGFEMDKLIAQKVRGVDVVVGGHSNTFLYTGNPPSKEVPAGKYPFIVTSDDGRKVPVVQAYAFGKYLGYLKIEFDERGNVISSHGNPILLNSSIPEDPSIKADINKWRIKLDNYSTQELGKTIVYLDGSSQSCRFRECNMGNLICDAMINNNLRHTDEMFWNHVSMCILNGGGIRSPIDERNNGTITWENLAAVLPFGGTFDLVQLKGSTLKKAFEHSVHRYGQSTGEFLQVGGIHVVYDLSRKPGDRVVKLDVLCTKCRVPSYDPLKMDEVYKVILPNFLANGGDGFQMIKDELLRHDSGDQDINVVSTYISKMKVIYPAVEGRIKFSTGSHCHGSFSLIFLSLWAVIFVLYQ
row,SMILES,IC50
1,O=P(O)(O)CP(=O)(O)OC[C@H]1O[C@@H](n2cnc3c(Nc4ccc5cc6ccccc6cc5c4)nc(Cl)nc32)C(O)C1O (stereo partly shown) [Compound 20],10 to 100 nM
2,O=P(O)(O)CP(=O)(O)OC[C@H]1O[C@@H](n2cnc3c(NC4C5CC6CC(C5)CC4C6)nc(Cl)nc32)[C@@H](O)C1O (stereo partly shown) [Compound 17],< 10 nM
3,O=C(CC12CC3CC(CC(C3)C1)C2)Nc1nc(Cl)nc2c1ncn2[C@@H]1O[C@H](COP(=O)(O)CP(=O)(O)O)C(O)[C@@H]1O (stereo partly shown) [Compound 16],10 to 100 nM
4,O=P(O)(O)CP(=O)(O)OC[C@H]1O[C@@H](n2cnc3c(NC45CC6CC(CC(C6)C4)C5)nc(Cl)nc32)[C@@H](O)C1O (stereo partly shown) [Compound 22],< 10 nM
5,CCCCCOC(=O)Nc1nc(Cl)nc2c1ncn2[C@@H]1O[C@H](COP(=O)(O)CP(=O)(O)O)C(O)C1O (stereo partly shown) [Compound 8],10 to 100 nM
6,O=P(O)(O)CP(=O)(O)OC[C@H]1O[C@@H](n2cnc3c(NCc4ccccc4)nc(Cl)nc32)[C@@H](O)C1O (stereo partly shown) [Compound 1],< 10 nM
7,O=P(O)(O)CP(=O)(O)OC[C@H]1O[C@@H](n2cnc3c(NCc4cccc5ccccc45)nc(Cl)nc32)[C@@H](O)C1O (stereo partly shown) [Compound 6],< 10 nM
8,C[C@]12C[C@@H]3C[C@](C)(C1)C[C@@](Nc1nc(Cl)nc4c1ncn4[C@@H]1O[C@H](COP(=O)(O)CP(=O)(O)O)C(O)[C@@H]1O)(C3)C2 (stereo partly shown) [Compound 9],< 10 nM
9,O=P(O)(O)CP(=O)(O)OC[C@H]1O[C@@H](n2cnc3c(-n4c5ccccc5c5ccccc54)nc(Cl)nc32)C(O)C1O (stereo partly shown) [Compound 10],10 to 100 nM
10,CC1(C)[C@@H]2CC[C@@]1(C)C(OC(=O)Cc1nc(Cl)nc3c1ncn3[C@@H]1O[C@H](COP(=O)(O)CP(=O)(O)O)C(O)C1O)C2 (stereo partly shown) [Compound 23],10 to 100 nM
11,CC1(C)OC2C(O1)[C@@H](COP(=O)(O)CP(=O)(O)O)O[C@H]2n1cnc2c(NCc3ccccc3)nc(Cl)nc21 (stereo partly shown) [Compound 2],10 to 100 nM
12,O=P(O)(O)CP(=O)(O)OC[C@H]1O[C@@H](n2cnc3c(N4C5CCC4CC(O)C5)nc(Cl)nc32)[C@@H](O)C1O (stereo partly shown) [Compound 51],< 10 nM
13,O=P(O)(O)CP(=O)(O)OC[C@H]1O[C@@H](n2cnc3c(NCc4ccc5ccccc5c4)nc(Cl)nc32)[C@@H](O)C1O (stereo partly shown) [Compound 7],< 10 nM
14,O=P(O)(O)CP(=O)(O)OC[C@H]1O[C@@H](n2cnc3c(Nc4ccc5ccccc5c4)nc(Cl)nc32)C(O)C1O (stereo partly shown) [Compound 12],10 to 100 nM
15,CCCCCCCCCCCCOC(=O)Nc1nc(Cl)nc2c1ncn2[C@@H]1O[C@H](COP(=O)(O)CP(=O)(O)O)C(O)[C@@H]1O (stereo partly shown) [Compound 15],< 10 nM
16,CCCCCCCCCCCCNC(=O)Nc1nc(Cl)nc2c1ncn2[C@@H]1O[C@H](COP(=O)(O)CP(=O)(O)O)C(O)C1O (stereo partly shown) [Compound 18],10 to 100 nM
17,O=P(O)(O)CP(=O)(O)OC[C@H]1O[C@@H](n2cnc3c(N4CCC5(CCCCC5)C4)nc(Cl)nc32)[C@@H](O)C1O (stereo partly shown) [Compound 31],< 10 nM
18,CCCCC/C=C\C/C=C\CCCCCCCC(=O)Nc1nc(Cl)nc2c1ncn2[C@@H]1O[C@H](COP(=O)(O)CP(=O)(O)O)C(O)C1O (stereo partly shown) [Compound 11],10 to 100 nM
19,CCCCCCCCCCCCN(CCCCCCCCCCCC)c1nc(Cl)nc2c1ncn2[C@@H]1O[C@H](COP(=O)(O)CP(=O)(O)O)C(O)[C@@H]1O (stereo partly shown) [Compound 19],> 100 nM

# Same assay, conditions: qualitative statement
row,SMILES,inhibitory activity in the CD73 enzyme assay
1,O=P(O)(O)CP(=O)(O)CC[C@H]1O[C@@H](n2cnc3c(NCc4ccccc4)nc(Cl)nc32)[C@@H](O)C1O (stereo partly shown) [a-1],showed inhibitory activity
2,O=P(O)(O)CP(=O)(O)CC[C@H]1O[C@@H](n2cnc3c(N4CCC5(CCCCC5)C4)nc(Cl)nc32)[C@@H](O)C1O (stereo partly shown) [a-31],showed inhibitory activity
3,C[C@]12C[C@@H]3C[C@](C)(C1)C[C@@](Nc1nc(Cl)nc4c1ncn4[C@@H]1O[C@H](CCP(=O)(O)CP(=O)(O)O)C(O)[C@@H]1O)(C3)C2 (stereo partly shown) [a-9],showed inhibitory activity

# Test system: not listed separately
# Assay: Pharmacokinetic evaluation in ICR mice, intravenous
# Format: in vivo
# Details: mouse; ICR male mice, 1.0 mg/kg intravenous, plasma
# Method: A test compound (1.0 mg/kg) was administered to fasted ICR male mice via intravenous injection, and blood samples were collected at time points of 0.08, 0.25, 0.5, 1, 2, 4, 6, 8 and 24 h after the administration. Plasma sample was separated by centrifugation (8000 rpm) and stored at −80° C. until the sample was analyzed. Concentrations of the test compound in the plasma were determined by HPLC-MS/MS: the plasma was dispensed into appropriate tubes containing internal standard and methanol or acetonitrile. The tubes were mixed vigorously for 3 minutes to achieve deproteinization and then centrifuged at 8000 rpm for 5 minutes. The supernatant was transferred to an autosampler vial, injected into the chromatographic system, and quantified on MS/MS detector. Pharmacokinetic parameters including AUC0-t, Cmax, Tmax, t1/2, MRT, Cl and Vd were calculated using WinNonlin 6.3 software. Table 3 summarizes key PK parameters for test compounds (AUC(0-t): the area under the curve from time 0 to time t; AUC(0-∞): the area under the curve from time 0 to infinity; t1/2: Half-life; CL: clearance; C0: the concentration of drug in blood if the drug molecules enter the circulation and are distributed immediately (i.e., at time 0)).
SMILES,AUC(0-inf),AUC(0-t),Cmax,half-life
O=P(O)(O)CP(=O)(O)OC[C@H]1O[C@@H](n2cnc3c(N4CC5(Cc6ccccc6C5)C4)nc(Cl)nc32)[C@@H](O)C1O (stereo partly drawn) [d-9],22500 ng·h/mL,19700 ng·h/mL,10700 ng/mL,177 min
O=P(O)(O)CP(=O)(O)OC[C@H]1O[C@@H](n2cnc3c(N4CC5(CCCC5)c5ccccc54)nc(Cl)nc32)[C@@H](O)C1O (stereo partly drawn) [d-13],298000 ng·h/mL,108000 ng·h/mL,11600 ng/mL,2370 min
O=P(O)(O)CP(=O)(O)OC[C@H]1O[C@@H](n2cnc3c(N4CC5(CCCc6ccccc65)C4)nc(Cl)nc32)[C@@H](O)C1O (stereo partly drawn) [d-12],9900 ng·h/mL,9860 ng·h/mL,8560 ng/mL,56.9 min
O=P(O)(O)CP(=O)(O)OC[C@H]1O[C@@H](n2cnc3c(N4CC5(CCCCCC5)c5ccccc54)nc(Cl)nc32)[C@@H](O)C1O (stereo partly drawn) [d-22],167000 ng·h/mL,74100 ng·h/mL,8030 ng/mL,1730 min
O=P(O)(O)CP(=O)(O)OC[C@H]1O[C@@H](n2cnc3c(N4CC5(CCC5)c5ccccc54)nc(Cl)nc32)[C@@H](O)C1O (stereo partly drawn) [d-20],121000 ng·h/mL,94000 ng·h/mL,15600 ng/mL,732 min
O=P(O)(O)CP(=O)(O)OC[C@H]1O[C@@H](n2cnc3c(N4CCC5(CCCc6ccccc65)C4)nc(Cl)nc32)[C@@H](O)C1O (stereo partly drawn) [d-6],6680 ng·h/mL,6670 ng·h/mL,7840 ng/mL,50.5 min
"C[C@H](Nc1cc(Cl)nc2c1cnn2[C@@H]1O[C@H](COP(=O)(O)CP(=O)(O)O)[C@@H](O)[C@H]1O)c1ccccc1F [Compound a, AB680, reference compound]",24200 ng·h/mL,24000 ng·h/mL,11700 ng/mL,205 min

# Molecular target: Recombinant human 5′-nucleotidase (hCD73) (Homo sapiens (Human), UniProt P21589)
# Sequence (P21589 27-574): as above
# Assay: CD73 enzyme inhibition assay (hCD73, AMP substrate, PiColorLock Gold phosphate detection)
# Format: biochemical
# Details: hCD73 1 nM solution, AMP 60 μM solution, 37° C. 20 min, absorbance 635 nm
# Method: Test compound solution preparation: Stock solution of a test compound was prepared in DMSO at 10 mM concentration. A series of preset 10-concentration solutions of a test compound were prepared by diluting the stock solution in 5-fold gradient dilution with DMSO.
# Assay buffer (lx): 20 mm Tris, 25 mM NaCl, 1 mM MgCl2, pH 7.5, 0.005% Tween-20 (freshly prepared, and ready for use).
# An aliquot of 0.25 μL of compound solution or DMSO (blank control) was added to each test well of a micro well plate. Recombinant human 5′-nucleotidase (hCD73) was diluted to 1 nM in assay buffer; and an aliquot of 25 μL hCD73 (1 nM) solution was added to the corresponding wells of the plate. The contents of the well were well-mixed, and the plate was covered with sealing film, centrifuged at 1000 rpm for 30 sec., followed by incubation at room temperature for 15 min. AMP, the substrate, was diluted to 60 μM concentration in the assay buffer. To each reaction well was added 25 μL of AMP solution. After mixing well, the plate was covered with sealing film, centrifuged at 1000 rpm for 30 sec., and incubated at 37° C. for 20 min. The absorbance signal (end point) was measured on SPARK plate reader at 635 nm (See PiColorLock™ Gold Phosphate Detection System (Abcam) test kit for reference).
# The reaction wells containing CD73 enzyme, substrate AMP and DMSO (no compound) were used as positive control, and the reaction wells containing substrate AMP and DMSO but no CD73 enzyme were used as negative control. The percent (%) inhibition at each concentration of compound was calculated based on and relative to the signal in the High and Low control wells contained within each assay plate. The High control wells were considered as 0% inhibition, and the low control wells, which didn't contain any compound but rather DMSO (final concentration=0.5%), as 100% inhibition. IC50 values were obtained using GraphPad Prism software.
row,SMILES,IC50
1,O=P(O)(O)CP(=O)(O)OC[C@H]1O[C@@H](n2cnc3c(N4CC5(Cc6ccccc6C5)C4)nc(Cl)nc32)[C@@H](O)C1O (stereo partly drawn) [d-9],0.73 nM
2,O=P(O)(O)CP(=O)(O)OC[C@H]1O[C@@H](n2cnc3c(N4CC5(CCCC5)c5ccccc54)nc(Cl)nc32)[C@@H](O)C1O (stereo partly drawn) [d-13],1.5 nM
3,O=P(O)(O)CP(=O)(O)OC[C@H]1O[C@@H](n2cnc3c(N4CC5(CCCc6ccccc65)C4)nc(Cl)nc32)[C@@H](O)C1O (stereo partly drawn) [d-12],0.4 nM
4,O=P(O)(O)CP(=O)(O)OC[C@H]1O[C@@H](n2cnc3c(N4CC(c5ccccc5)c5ccccc54)nc(Cl)nc32)[C@@H](O)C1O (stereo partly drawn) [Compound d-38],1.92 nM
5,O=P(O)(O)CP(=O)(O)OC[C@H]1O[C@@H](n2cnc3c(N4CC(c5ccccc5)(c5ccccc5)C4)nc(Cl)nc32)[C@@H](O)C1O (stereo partly drawn) [d-35],1.39 nM
6,O=P(O)(O)CP(=O)(O)OC[C@H]1O[C@@H](n2cnc3c(N4CC5(CCC5)c5ccccc54)nc(Cl)nc32)[C@@H](O)C1O (stereo partly drawn) [d-20],1.29 nM
7,O=P(O)(O)CP(=O)(O)OC[C@H]1O[C@@H](n2cnc3c(N4CC(c5ccccc5)C(c5ccccc5)C4)nc(Cl)nc32)[C@@H](O)C1O (stereo partly drawn) [d-36],1.86 nM
8,O=P(O)(O)CP(=O)(O)OC[C@H]1O[C@@H](n2cnc3c(N4CCC5(CCc6ccccc65)C4)nc(Cl)nc32)[C@@H](O)C1O (stereo partly drawn) [d-8],0.75 nM
